Where only a bound is given, the exact number is not on record here.

This is an account of results in patent US11498896B2 (The Broad Institute, Inc., priority 2014, dated 2022).

Experiment [1] addresses T1, human D2R/β-arrestin (Homo sapiens (Human), UniProt P14416). Nature of the experiment: Gi/cAMP agonist assay (Lance Ultra cAMP, forskolin). It counts as cell-based. Particulars: CHO-K1 cells expressing human D2R/β-arrestin; agonist mode, 2.5 μM forskolin. The protocol:
Eu-cAMP tracer solution (10 μl, PerkinElmer, 360 μl of Tracer in 17.64 ml kit buffer) and ULight-anti-cAMP solution (10 μl, 120 μL antibody in 17.88 ml kit buffer) was then added to each well.

Experiment [2] concerns the target T1, human D2R/β-arrestin. Kind of experiment: β-arrestin agonist assay (PathHunter). The class given is cell-based. The conditions noted are these: CHO-K1 cells expressing human D2R/β-arrestin; agonist mode. As for the experimental part:
The detection reagent (9.6 μL, Buffer:Emerald II:Galactor-Star in a 19:5:1 ratio, i.e., 14.06 mL:3.7 mL:0.74 mL=18.5 mL) was then added to the agonist plates.

Experiment [3] addresses T1, human D2R/β-arrestin. Kind of experiment: cell-based. Particulars: cAMP Antagonist, CHO-K1 cells expressing human D2R/β-arrestin; antagonist mode, 2.5 μM forskolin and 2.7 nM quinpirole.
Experiment [4] concerns the target T1, human D2R/β-arrestin. Nature of the experiment: cell-based. Particulars: β-arrestin Antagonist, CHO-K1 cells expressing human D2R/β-arrestin; antagonist mode, quinpirole 130 nM.
Procedure: Cells were prepared for assays by growing cultures for up to 2 weeks (from about 6-20 passages). A vial of frozen cells was thawed in a water bath held at 37° C. The cells were then transferred into a 50 ml tube with 10 ml growth media. The vial was rinsed with growth media and the contents transferred to the 50 ml tube. The 50 ml tube was centrifuged at 1200 rpm for 5 minutes at room temperature. […] When the cells reached about 90% confluence (approximately 3 days between passages), the cells were passaged and used for either the agonist or antagonist assays as described below.
The cells were prepared for β-arrestin assays as described above. The assays were performed using a PathHunter® β-Arrestin Detecting Kit (DiscoveRX). The cells were grown on 225 mm dishes, then washed once with 1×PBS (Cellgro), followed by digestion with 2.5 ml 1× Detachment reagent (DRX 92-0009) for approximately 2 minutes.

T1 sequence (P14416 whole entry): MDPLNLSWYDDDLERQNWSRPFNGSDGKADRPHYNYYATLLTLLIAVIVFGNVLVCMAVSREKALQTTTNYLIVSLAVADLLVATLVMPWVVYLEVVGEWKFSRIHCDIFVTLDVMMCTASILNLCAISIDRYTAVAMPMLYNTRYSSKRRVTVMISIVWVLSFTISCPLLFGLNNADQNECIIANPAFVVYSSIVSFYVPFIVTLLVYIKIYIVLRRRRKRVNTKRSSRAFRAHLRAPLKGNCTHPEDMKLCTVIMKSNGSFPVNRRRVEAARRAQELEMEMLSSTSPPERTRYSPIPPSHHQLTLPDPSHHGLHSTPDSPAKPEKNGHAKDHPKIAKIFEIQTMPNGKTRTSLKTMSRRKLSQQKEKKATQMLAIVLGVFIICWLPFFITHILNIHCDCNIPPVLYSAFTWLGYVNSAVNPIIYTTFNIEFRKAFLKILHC

As usually defined, the EC50 is the midpoint of the concentration-response curve. By IC50 is commonly meant the point on the concentration scale where inhibition reaches its midpoint. A high value points to weaker potency. With `CC1(Oc2ccc(Cl)cc2)CCN(CCOc2ccc3ncoc3c2)CC1` [Compound 127, 6-(2-(4-(4-chlorophenoxy)-4-methylpiperidin-1-yl)ethoxy)benzo[d] oxazole], the figures for the EC50 in experiment [1] and in experiment [2] were < 0.1 µM and 0.1 to 1 µM, respectively. The half-maximal inhibitory concentration (IC50) in experiment [3] is > 30 µM; in experiment [4], 1 to 10 µM.
As to `CC1(Oc2ccc(Cl)cc2)CCN(CCOc2cnccc2C(F)(F)F)CC1` [Compound 128, 3-(2-(4-(4-chlorophenoxy)-4-methylpiperidin-1-yl)ethoxy)-4-(trifluoromethyl)pyridine], the EC50 in experiment [1] was 1 to 10 µM; in experiment [2] it was > 30 µM. The results for the IC50 in experiment [3] and in experiment [4] were 0.1 to 1 µM and 1 to 10 µM, respectively.
For the molecule `CC1(Oc2ccc(Cl)cc2)CCN(CC(=O)Nc2ccccc2C(F)(F)F)CC1` [Compound 129, 2-(4-(4-chlorophenoxy)-4-methylpiperidin-1-yl)-N-(2-(trifluoromethyl)phenyl)acetamide], the half-maximal effective concentration (EC50) in experiment [1] and in experiment [2] was > 30 µM in each case. Moreover, the 50% inhibitory concentration (IC50) in experiment [3] and in experiment [4] was > 30 µM in each case.
Take `CC1(O)CCN(CCOc2ccccc2)CC1` [Compound 130, 4-Methyl-1-(2-phenoxyethyl)piperidin-4-ol]: the concentration giving a half-maximal response (EC50) in experiment [1] lay within 0.1 to 1 µM; in experiment [2], 1 to 10 µM. Besides, the figures for the IC50 in experiment [3] and in experiment [4] were > 30 µM and 10 to 30 µM, respectively.
Regarding `CC1(O)CCN(CCOc2ccccc2F)CC1` [Compound 131, 1-(2-(2-fluorophenoxy)ethyl)-4-methylpiperidin-4-ol], the concentration giving a half-maximal response (EC50) in experiment [1] was < 0.1 µM; in experiment [2], 0.1 to 1 µM. Also, the results for the half-inhibitory concentration (IC50) in experiment [3] and in experiment [4] were > 30 µM and 1 to 10 µM, respectively.
With `CC1(O)CCN(CCOc2ccc(C(F)(F)F)cc2)CC1` [Compound 132, 4-methyl-1-(2-(4-(trifluoromethyl)phenoxy)ethyl)piperidin-4-ol], the 50% effective concentration (EC50) in experiment [1] and in experiment [2] was > 30 µM throughout. The half-maximal inhibitory concentration (IC50) in experiment [3] was in the range of 1 to 10 µM; in experiment [4], 10 to 30 µM.
For `C[C@]1(O)C[C@H]2CC[C@@H](C1)N2CCOc1ccccc1C(F)(F)F` [Compound 133, 3-methyl-8-(2-(2-(trifluoromethyl)phenoxy)ethyl)-8-azabicyclo[3.2.1] octan-3-ol], the EC50 in experiment [1] and in experiment [2] was > 30 µM throughout. The IC50 in experiment [3] and in experiment [4] was 0.1 to 1 µM in each case.
Take `CC1(O)CCCN(CCOc2ccccc2C(F)(F)F)C1` (stereo not drawn) [Compound 134, 3-Methyl-1-(2-(2-(trifluoromethyl)phenoxy)ethyl)piperidin-3-ol]: the EC50 in experiment [1] and in experiment [2] was > 30 µM in each case. Further, the IC50 in experiment [3] lay in the range of 1 to 10 µM; in experiment [4], 10 to 30 µM.
Consider `FC(F)(F)c1ccccc1OCCN1CCC2(CC1)CCN2c1ccc(Cl)cc1` [Compound 136, 1-(4-Chlorophenyl)-7-(2-(2-(trifluoromethyl)phenoxy)ethyl)-1,7-diazaspiro[3.5]nonane], for which the EC50 in experiment [1] and in experiment [2] was > 30 µM throughout. The IC50 in experiment [3] is < 0.1 µM; in experiment [4] it was 0.1 to 1 µM.
For the molecule `CC1(O)CCN(CCCOc2ccccc2C(F)(F)F)CC1` [Compound 138, 4-methyl-1-(3-(2-(trifluoromethyl)phenoxy)propyl)piperidin-4-ol], the half-maximal effective concentration (EC50) in experiment [1] and in experiment [2] was > 30 µM in each case. Further, the IC50 in experiment [3] and in experiment [4] was 0.1 to 1 µM each time.
On to `CC1(O)CCN(CCOc2ccccc2C(F)(F)F)C1` (stereo not drawn) [Compound 139, 3-Methyl-1-(2-(2-(trifluoromethyl)phenoxy)ethyl)pyrrolidin-3-ol], for which the EC50 in experiment [1] and in experiment [2] was > 30 µM throughout. The IC50 in experiment [3] and in experiment [4] was 1 to 10 µM in each case.
As for `CC1(Oc2ccccc2)CCN(CCOc2ccccc2S(C)(=O)=O)CC1` [Compound 141, 4-methyl-1-(2-(2-(methylsulfonyl)phenoxy)ethyl)-4-phenoxypiperidine], the results for the concentration for a half-maximal effect (EC50) in experiment [1] and in experiment [2] were 1 to 10 µM and > 30 µM, respectively. For the same molecule, the IC50 in experiment [3] and in experiment [4] was 0.1 to 1 µM each time.
